From patent US20230226065A1, “ANTI-INFLAMMATORY COMPOSITIONS, METHODS AND USES THEREOF” (COMVITA LIMITED, priority 2020, published 2023) come the findings set out here.

For the experiment, the target named is T1, recombinant MMP-9 enzyme (Homo sapiens, UniProt P14780).
T1 construct: purchased Abcam ab139449
Briefly: MMP-9 inhibitor screening assay (fluorometric). Format: biochemical. The note with it: 40 μg/ml; no significant difference to NNGH control. As to the method: The MMP-9 inhibitor screening assay (fluorometric) kits were purchased from Abcam (Melbourne, Australia). The fluorometric kit contains the recombinant MMP-9 enzyme, MMP inhibitor NNGH (N-isobutyl-N-[4-methoxyphenylsulfonyl]glycyl hydroxamic acid), MMP fluorogenic substrate solubilised in DMSO, the fluorometric assay buffer and 96-well clear microplate.
Inhibitory activity on MMP-9 was assessed using the commercial MMP-9 inhibitor screening assay kit. MMP-9 activity was expressed as a change in fluorescence intensity measured using SpectraMax iD3 multi-mode microplate reader (Molecular Devices, San Jose, USA).
The assay employs a FRET-tagged (fluorescence resonance energy transfer) substrate, which can be hydrolysed by MMP-9 at a specific site (Abcam, 2018). The cleavage of the FRET substrate releases the quenched fluorescent Mca (7-methoxycoumarin-4-yl)-acetyl group (Abcam, 2018). The kit employs a quenched fluorogenic substrate Mca-Pro-Leu-Gly-Leu-Dpa-Ala-Arg-NH2, where the Mca fluorescence is quenched by Dpa until cleavage by MMPs. The amount of fluorescent product yielded by MMP-9 can be detected fluorometrically and it is proportional to the enzyme activity. Fluorescence were measured at ex320 nm-em395 nm to minimise fluorescence interference from 3,6,7-trimethyllumazine at ex330 nm-em470 nm. […]

T1 sequence (P14780 94-707): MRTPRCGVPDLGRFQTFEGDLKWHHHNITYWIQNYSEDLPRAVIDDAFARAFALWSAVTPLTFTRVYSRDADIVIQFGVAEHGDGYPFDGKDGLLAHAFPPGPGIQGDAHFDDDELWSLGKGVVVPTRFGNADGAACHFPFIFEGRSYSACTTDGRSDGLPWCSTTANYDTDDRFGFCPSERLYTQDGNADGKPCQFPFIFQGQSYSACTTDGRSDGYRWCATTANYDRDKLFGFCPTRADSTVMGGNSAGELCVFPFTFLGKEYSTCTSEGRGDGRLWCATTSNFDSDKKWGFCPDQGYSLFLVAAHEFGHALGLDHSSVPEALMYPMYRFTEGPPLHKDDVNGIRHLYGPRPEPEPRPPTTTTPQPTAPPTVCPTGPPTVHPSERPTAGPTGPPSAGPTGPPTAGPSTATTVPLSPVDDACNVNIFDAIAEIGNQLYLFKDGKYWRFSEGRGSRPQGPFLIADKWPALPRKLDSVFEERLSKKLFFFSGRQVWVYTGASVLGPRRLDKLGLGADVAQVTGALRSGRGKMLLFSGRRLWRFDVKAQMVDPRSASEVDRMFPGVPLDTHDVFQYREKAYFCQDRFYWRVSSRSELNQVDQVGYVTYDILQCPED

In the case of `Cc1nc2[nH]c(=O)n(C)c(=O)c2nc1C` [3,6,7-trimethyllumazine], the “inhibition of MMP-9 activity” value was “almost completely inhibited”.
